Laboratory results reported in ChEMBL document CHEMBL1201862, “PubChem BioAssay data set” (2004).
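Protocol summary: plate cells (96-well), add compound at 5 concentrations, incubate 48 h, interpolate endpoints linearly. GI50 = concentration required for 50% inhibition of growth.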 The source made the active and inactive calls. Cut-off read from the data, not from the text of the source: active = GI50 up to about 1.1 µM and inactive = higher.

What was measured:
Assay in all cases: inhibition of tumour cell growth, NCI panel, 48 h
[1] = test system: TK-10
[2] = test system: EKVX
[3] = test system: CCRF-CEM
[4] = test system: 786-0
[5] = test system: OVCAR-5
[6] = test system: OVCAR-3
[7] = test system: SK-MEL-5
[8] = test system: HOP-62
[9] = test system: IGROV-1
[10] = test system: OVCAR-4
[11] = test system: SK-MEL-28
[12] = test system: LOX IMVI
[13] = test system: T47D
[14] = test system: KM12
[15] = test system: NCI-H23
[16] = test system: NCI-H226
[17] = test system: HOP-92
[18] = test system: COLO 205
[19] = test system: HL-60
[20] = test system: MCF7

Measured: GI50

CC(C)(C)OC(=O)N1CC(O)O[C@H](c2ccccc2)[C@@H]1c1ccccc1 (some centres not stated)
inactive: [1] 17.8 µM | [2] 19.5 µM | [3] 21.6 µM | [4] 27.9 µM | [5] 17.9 µM | [6] 15.6 µM | [7] 27.9 µM | [8] 16.3 µM | [9] 18.9 µM | [10] 18.5 µM | [11] 18.6 µM | [12] 35.7 µM | [13] 31.1 µM | [14] 19.2 µM | [15] 15.9 µM | [16] 20.6 µM | [17] 16.7 µM | [18] 31 µM

CC(C)=CC(=O)C1c2cccc(O)c2C(=O)c2c(O)cc(C)cc21 (configuration not stated)
inactive: [1] 2.42 µM | [2] 12.6 µM | [3] 2.55 µM | [4] 5.06 µM | [5] 2.34 µM | [6] 1.99 µM | [7] 2.05 µM | [8] 2.86 µM | [9] 2.09 µM | [10] 2.13 µM | [11] 3.05 µM | [12] 1.86 µM | [19] 3.24 µM | [14] 1.63 µM | [15] 2.44 µM | [16] 2.24 µM | [17] 2.75 µM | [18] 1.79 µM

N#CC(C(=O)/C(=N/N)C(C#N)c1ccc(Cl)cc1)c1ccc(Cl)cc1 (configuration not stated)
inactive: [1] > 100 µM | [2] > 100 µM | [3] > 100 µM | [4] > 100 µM | [5] > 100 µM | [6] > 100 µM | [7] > 100 µM | [8] > 100 µM | [9] > 100 µM | [10] > 100 µM | [11] > 10 µM | [12] > 100 µM | [19] > 100 µM | [14] > 100 µM | [15] > 100 µM | [16] > 100 µM | [17] > 100 µM | [18] > 100 µM

C=C(COC(C)=O)CC(/C=C(\C)CCC=C(C)C)OC(C)=O (configuration not stated)
inactive: [1] > 100 µM | [2] > 100 µM | [3] 70.5 µM | [4] > 100 µM | [5] > 100 µM | [6] > 100 µM | [7] > 100 µM | [8] > 100 µM | [9] > 100 µM | [10] > 100 µM | [11] > 100 µM | [12] 32.2 µM | [19] 74.5 µM | [14] > 100 µM | [15] > 100 µM | [16] > 100 µM | [17] 46.5 µM | [18] > 100 µM

OC/C=C(\I)CCCOCOCc1ccccc1
inactive: [1] > 100 µM | [2] 36.5 µM | [3] 20.7 µM | [4] 28.8 µM | [5] 45.4 µM | [6] 30.8 µM | [7] 22.1 µM | [8] 42.5 µM | [9] 98.2 µM | [10] 24.5 µM | [11] 37.9 µM | [12] 19.2 µM | [19] 15.9 µM | [14] > 100 µM | [15] 26.3 µM | [16] 27.4 µM | [17] 15.7 µM | [18] 67.1 µM

C=C(CS(=O)(=O)c1ccccc1)[P+](c1ccccc1)(c1ccccc1)c1ccccc1
inactive: [1] 31.4 µM | [2] 30.4 µM | [3] 5.22 µM | [4] 19.9 µM | [5] 33.9 µM | [6] 14.8 µM | [7] 13.6 µM | [8] 28.1 µM | [9] 25.7 µM | [10] 37.9 µM | [11] 11.1 µM | [12] 13.5 µM | [19] 9.16 µM | [14] 14.7 µM | [15] 20.4 µM | [16] 16.4 µM | [17] 24.5 µM

Clc1ccccc1C1SCc2nc3ccccc3n21 (configuration not stated)
inactive: [1] 23 µM | [2] 22.6 µM | [3] 30.3 µM | [4] 25.7 µM | [5] 17.6 µM | [6] 14.1 µM | [7] 17.9 µM | [8] 19.3 µM | [9] 33.6 µM | [10] 18 µM | [11] 28.5 µM | [12] 26.4 µM | [19] 13 µM | [14] 30.8 µM | [15] 25.4 µM | [16] 26.2 µM | [17] 8.79 µM | [18] 49.7 µM

C=CCCC(=O)N1CCC(C(=O)OCC)C1=O (configuration not stated)
inactive: [1] > 100 µM | [2] > 100 µM | [3] > 100 µM | [4] > 100 µM | [5] > 100 µM | [7] > 100 µM | [8] > 100 µM | [9] > 100 µM | [10] > 100 µM | [11] > 100 µM | [12] > 100 µM | [13] > 100 µM | [19] > 100 µM | [14] > 100 µM | [15] > 100 µM | [16] 90.8 µM | [18] > 100 µM

CN(CC(=O)O)c1ncc2c(n1)C=CCC2
inactive: [20] > 100 µM | [1] > 100 µM | [2] > 100 µM | [3] > 100 µM | [4] > 100 µM | [5] > 100 µM | [6] > 100 µM | [7] > 100 µM | [8] > 100 µM | [9] > 100 µM | [10] > 100 µM | [11] > 100 µM | [12] > 100 µM | [19] 81.5 µM | [14] > 100 µM | [15] > 100 µM | [16] > 100 µM | [17] > 100 µM | [18] > 100 µM

CCOC(=N)CC(=O)c1ccccc1
inactive: [1] > 100 µM | [2] > 100 µM | [3] > 100 µM | [4] > 100 µM | [5] > 100 µM | [6] > 100 µM | [7] > 100 µM | [8] > 100 µM | [9] > 100 µM | [10] > 100 µM | [11] > 100 µM | [12] > 100 µM | [19] > 100 µM | [14] > 100 µM | [15] > 100 µM | [16] > 100 µM | [17] > 100 µM | [18] > 100 µM

CN(C)c1nc2n(CCO)c(-c3ccccc3)c(-c3ccccc3)nc-2c(=O)n1
inactive: [1] > 100 µM | [2] > 100 µM | [3] > 100 µM | [4] > 100 µM | [5] > 100 µM | [6] > 100 µM | [7] > 100 µM | [8] > 100 µM | [9] > 100 µM | [10] > 100 µM | [11] > 100 µM | [12] > 100 µM | [13] > 100 µM | [14] > 100 µM | [15] > 100 µM | [16] > 100 µM | [17] > 100 µM | [18] > 100 µM
